Test systems include Malme-3M; SNB-19; 786-0; OVCAR-4; SK-MEL-5; HOP-62; PC-3; UO-31; SK-OV-3; NCI-H460; M14; OVCAR-3; BT-549; Hs-578T; SW-620; A498; NCI-H23; T47D; SK-MEL-2; ACHN.
Holding throughout (assay): growth of human tumour cells (NCI), 48 h

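Cells were grown in 96-well plates and exposed to each compound for 48 hours at five concentrations; endpoints were interpolated linearly between bracketing concentrations, or set to the highest concentration if not reached. At the GI50, growth is halved.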 The source made the active and inactive calls. No stated cut-off is given here; in the data, active = GI50 up to about 1.1 µM and inactive = higher.

Turning to `CC(C)c1ccc2nc3ccc(C(=O)NCCN4CCN(c5ccccc5)CC4)cn3c(=O)c2c1`, the GI50 in the assay with Malme-3M is 1.85 µM (inactive); in the assay on SNB-19, > 100 µM (inactive); in the assay on 786-0 it was 3.21 µM (inactive); in the assay with OVCAR-4 it was > 100 µM (inactive); in the assay on SK-MEL-5, 2.58 µM (inactive); in the assay on HOP-62 it was 6.31 µM (inactive). In addition, the GI50 with PC-3 was 2.37 µM (inactive); in the assay on UO-31, 4.9 µM (inactive); in the assay on SK-OV-3 it was > 100 µM (inactive); in the assay on NCI-H460, 4.3 µM (inactive); in the assay on M14, 2.87 µM (inactive); with OVCAR-3, > 100 µM (inactive). Also, the GI50 was 6.3 µM (inactive) with BT-549; 4.93 µM (inactive) in the assay with Hs-578T; 8.49 µM (inactive) in the assay with SW-620; 29.9 µM (inactive) in the assay on A498; 7.73 µM (inactive) with NCI-H23.
For the compound `O=c1c2ccccc2nc(-c2cc3c(cc2Cl)Sc2nccn2S3(=O)=O)n1-c1ccccc1`, the GI50 in the assay with Malme-3M was > 100 µM (inactive); with SNB-19, 40.8 µM (inactive); with 786-0, 30.1 µM (inactive); in the assay with OVCAR-4 it was 17.9 µM (inactive); in the assay on SK-MEL-5, 45.3 µM (inactive); in the assay on HOP-62 it was 18.2 µM (inactive). Besides, the GI50 with PC-3 was 16.5 µM (inactive); in the assay on UO-31 it was 16.6 µM (inactive); in the assay on SK-OV-3, > 100 µM (inactive); with NCI-H460 it was 37.3 µM (inactive); in the assay on M14, > 100 µM (inactive); in the assay on OVCAR-3, 15.9 µM (inactive). The GI50 with BT-549 was 41.1 µM (inactive); in the assay with Hs-578T, 12.2 µM (inactive); in the assay with T47D it was 8.93 µM (inactive); with SW-620, 13.5 µM (inactive); in the assay with NCI-H23, 62.5 µM (inactive); with SK-MEL-2, 18.5 µM (inactive). In addition, in the assay with ACHN, the GI50 is > 100 µM (inactive).
Turning to `Nn1c(=S)[nH]nc(/C=C/c2c(O)ccc3ccccc23)c1=O`, the GI50 was 12.2 µM (inactive) in the assay on Malme-3M; 21.8 µM (inactive) in the assay with SNB-19; 5.46 µM (inactive) with 786-0; 4.06 µM (inactive) with OVCAR-4; 10.2 µM (inactive) in the assay with SK-MEL-5; 11.6 µM (inactive) with HOP-62. For the same compound, the GI50 with PC-3 is 11.1 µM (inactive); in the assay with UO-31, 6.35 µM (inactive); in the assay with SK-OV-3, 11 µM (inactive); in the assay on NCI-H460 it was 4.58 µM (inactive); in the assay on M14, 5.71 µM (inactive); in the assay with OVCAR-3, 3.13 µM (inactive). Further, the GI50 in the assay on BT-549 is 5.43 µM (inactive); with T47D it was 3.97 µM (inactive); with SW-620 it was 4.74 µM (inactive); in the assay on A498, 16.9 µM (inactive); in the assay with NCI-H23, 3.24 µM (inactive); with SK-MEL-2, 13.3 µM (inactive). In addition, the GI50 in the assay with ACHN was 4.93 µM (inactive).
For the compound `COc1cc(C)cc(C(=O)OCc2ccccc2)c1C1=C(Cl)C(=O)C(Cl)=CC1=O`, the GI50 in the assay on Malme-3M was > 10 µM (inactive); with SNB-19, > 10 µM (inactive); in the assay on 786-0 it was > 5.71 µM (inactive); in the assay with OVCAR-4 it was > 5.13 µM (inactive); with SK-MEL-5, > 10 µM (inactive); with HOP-62, > 10 µM (inactive). The GI50 in the assay with PC-3 is > 10 µM (inactive); in the assay on UO-31, 3.25 µM (inactive); in the assay on SK-OV-3, > 10 µM (inactive); with NCI-H460, > 10 µM (inactive); in the assay with M14, > 10 µM (inactive); in the assay with OVCAR-3, 4.6 µM (inactive). Further, the GI50 is > 10 µM (inactive) in the assay with BT-549; > 10 µM (inactive) in the assay on Hs-578T; 6.44 µM (inactive) with T47D; > 7.59 µM (inactive) in the assay with SW-620; > 10 µM (inactive) with NCI-H23; > 10 µM (inactive) with SK-MEL-2. For the same compound, the GI50 in the assay with ACHN was > 10 µM (inactive).
For the compound `CCn1c(CCl)nc2c1C(=O)c1ccccc1C2=O`, the GI50 in the assay with Malme-3M was 1.04 µM (active); in the assay with SNB-19 it was 1.87 µM (inactive); with 786-0, 3.04 µM (inactive); with OVCAR-4, 1.66 µM (inactive); in the assay on SK-MEL-5 it was 0.42 µM (active); with HOP-62 it was 2.42 µM (inactive). Besides, the GI50 was 1.91 µM (inactive) in the assay with PC-3; 0.515 µM (active) in the assay with SK-OV-3; 1.98 µM (inactive) with NCI-H460; 1.63 µM (inactive) in the assay with M14; 1.69 µM (inactive) in the assay on OVCAR-3; 2.18 µM (inactive) in the assay with BT-549. For the same compound, the GI50 in the assay on Hs-578T is 2.29 µM (inactive); in the assay on T47D it was 1.95 µM (inactive); in the assay on SW-620, 1.33 µM (inactive); with NCI-H23, 1.4 µM (inactive); in the assay with ACHN it was 3.72 µM (inactive).
With `COc1ccc(/N=c2/oc3ccccc3cc2C(N)=O)cc1`, the GI50 with SNB-19 is 1.91 µM (inactive); in the assay with 786-0 it was 23.7 µM (inactive); with SK-MEL-5 it was > 100 µM (inactive); with HOP-62 it was 17.2 µM (inactive); with PC-3, 80 µM (inactive); in the assay on UO-31 it was 2.33 µM (inactive). Also, the GI50 with SK-OV-3 is 20 µM (inactive); in the assay on NCI-H460 it was > 100 µM (inactive); in the assay with M14, 55.2 µM (inactive); in the assay with OVCAR-3, > 100 µM (inactive); in the assay with BT-549, 32.3 µM (inactive); in the assay on Hs-578T it was 18.7 µM (inactive). Besides, the GI50 is > 100 µM (inactive) with T47D; > 100 µM (inactive) with SW-620; 29.8 µM (inactive) in the assay with NCI-H23; 55.2 µM (inactive) in the assay with SK-MEL-2; 18.4 µM (inactive) in the assay with ACHN.
On to `C=C1C[C@H](O)[C@H]2C(C[Se]c3ccccc3)C(=O)O[C@@H]2[C@H]2[C@H](C)C(O)C[C@@H]12` (some centres not stated), for which the GI50 in the assay on Malme-3M was 40.6 µM (inactive); in the assay on SNB-19, > 100 µM (inactive); in the assay with 786-0, 33 µM (inactive); in the assay with OVCAR-4, 38.1 µM (inactive); with SK-MEL-5, 33.6 µM (inactive); in the assay with HOP-62, > 100 µM (inactive). For the same compound, the GI50 in the assay on PC-3 was 22.7 µM (inactive); with UO-31, 22.8 µM (inactive); in the assay on SK-OV-3, > 100 µM (inactive); in the assay on NCI-H460, 34 µM (inactive); in the assay with M14, 31.5 µM (inactive); with OVCAR-3, 24.4 µM (inactive). The GI50 in the assay on BT-549 was 28.8 µM (inactive); in the assay with Hs-578T, 32.8 µM (inactive); in the assay with T47D it was 28.3 µM (inactive); in the assay with SW-620, 27.5 µM (inactive); in the assay on NCI-H23, 15.7 µM (inactive); with SK-MEL-2 it was 66.2 µM (inactive). Besides, the GI50 in the assay on ACHN was 27.9 µM (inactive).
Take `CC1(C)OCC2OC3([C@@H]4OC(C)(C)O[C@H]4CO)OC(C)(C)OC3C2O1` (some centres not stated): the GI50 with SNB-19, in the assay on 786-0, in the assay with OVCAR-4, in the assay on SK-MEL-5, in the assay with HOP-62 and with PC-3 was > 100 µM (inactive) throughout. For the same compound, the GI50 with UO-31, with NCI-H460, in the assay on M14, in the assay with OVCAR-3, in the assay with BT-549 and in the assay on T47D was > 100 µM (inactive) each time. In addition, the GI50 in the assay on SW-620, with A498, in the assay with NCI-H23, in the assay with SK-MEL-2 and in the assay with ACHN was > 100 µM (inactive) in each case.
For the compound `Clc1c(C(Cl)(Cl)Cl)nsc1N1CCCCC1`, the GI50 with Malme-3M is 13.5 µM (inactive); in the assay on SNB-19, 20.7 µM (inactive); with 786-0 it was 17.9 µM (inactive); with OVCAR-4 it was 25.6 µM (inactive); with SK-MEL-5, 16 µM (inactive); in the assay on HOP-62 it was 23 µM (inactive). Further, the GI50 in the assay on PC-3 is 31 µM (inactive); in the assay on UO-31, 11.4 µM (inactive); in the assay on SK-OV-3, 27.9 µM (inactive); in the assay with NCI-H460, 33.6 µM (inactive); in the assay with M14, 21 µM (inactive); in the assay with OVCAR-3, 20.8 µM (inactive). The GI50 in the assay with BT-549 was 18.3 µM (inactive); in the assay on Hs-578T it was 31.3 µM (inactive); in the assay with SW-620, 32.4 µM (inactive); in the assay with A498, 20 µM (inactive); in the assay with NCI-H23, 14 µM (inactive); in the assay with ACHN it was 29.8 µM (inactive).
Consider `Cc1cc2c3c(ccc4[nH]cc(c43)CN2c2ccc(NS(C)(=O)=O)cc2)n1`, for which the GI50 was 1.83 µM (inactive) in the assay on SNB-19; 11.4 µM (inactive) in the assay on 786-0; > 100 µM (inactive) in the assay with OVCAR-4; > 100 µM (inactive) with SK-MEL-5; 19.6 µM (inactive) in the assay on HOP-62; > 100 µM (inactive) in the assay with PC-3. Also, the GI50 was 12.7 µM (inactive) in the assay with UO-31; 32.3 µM (inactive) in the assay with SK-OV-3; 91.6 µM (inactive) in the assay with NCI-H460; > 100 µM (inactive) with M14; 21.2 µM (inactive) in the assay with OVCAR-3; 35.5 µM (inactive) with BT-549. Further, the GI50 in the assay with Hs-578T is > 100 µM (inactive); with SW-620, > 100 µM (inactive); in the assay on A498 it was 41.4 µM (inactive); in the assay with NCI-H23, 20.8 µM (inactive); in the assay on SK-MEL-2, 37.7 µM (inactive); in the assay with ACHN, 70.3 µM (inactive).
Take `CC(=O)C1C(=O)C(=O)N(c2ccc([N+](=O)[O-])cc2)C1=O` (configuration not stated): the GI50 was > 100 µM (inactive) with SNB-19; > 100 µM (inactive) with 786-0; > 100 µM (inactive) in the assay with OVCAR-4; > 100 µM (inactive) in the assay with SK-MEL-5; > 100 µM (inactive) in the assay with HOP-62; 52.7 µM (inactive) in the assay on PC-3. For the same compound, the GI50 with UO-31, in the assay on SK-OV-3, in the assay with NCI-H460, in the assay on M14, in the assay on OVCAR-3 and in the assay on BT-549 was > 100 µM (inactive) throughout. For the same compound, the GI50 is > 100 µM (inactive) with Hs-578T; > 100 µM (inactive) in the assay on SW-620; > 100 µM (inactive) with NCI-H23; 66.2 µM (inactive) with SK-MEL-2; > 100 µM (inactive) with ACHN.

For the origin of these results see ChEMBL document CHEMBL1201862, “PubChem BioAssay data set” (2004).
